Key:
Assay type in all cases: cell-based
[1] = system: Candida albicans ATCC 10231; test: Microbial challenge, Grupo Medifarma; conditions: contact time 30 seconds
Excerpt: (§1) Tables 1, 2, 3 and 4 (shown hereinafter) present the information obtained after conducting microbiological tests, also known as antimicrobial challenge, of M-DDO against various bacteria, showing its powerful anti-bacterial capacity. Moreover, Table 5 (shown hereinafter) presents the results of M-DDO against Propionibacterium acnes.
(§2) Various antimicrobial challenges have been studied in various institutions in order to evaluate the efficacy of M-DDO [Pirfenidone and M-DDO] against the most frequent microorganisms susceptible to develop resistance and against some microorganisms that may cause grater problem with regard to their eradication because of spore production.
(§3) The initial challenges are conducted with collection microorganisms universally requested for evidencing the efficacy of a product. […] Moreover, results of studies conducted by a company authorized by the authorities to perform challenge studies show results that are similar to the results obtained in the test conducted at UNAM, UAEM and in our laboratory (Grupo Medifarma)(Tables 1, 2 and 3).

[2] = system: Escherichia coli ATCC 10536; test: Microbial challenge, Grupo Medifarma; conditions: contact time 30 seconds
Excerpt: as §1, §2, §3

[3] = system: Escherichia coli ATCC 11229; test: Microbial challenge, Grupo Medifarma; conditions: contact time 30 seconds
Excerpt: as §1, §2, §3

[4] = system: Klebsiella pneumoniae ATCC 10031; test: Microbial challenge, Grupo Medifarma; conditions: contact time 30 seconds
Excerpt: as §1, §2, §3

[5] = system: Proteus vulgaris ATCC 6380; test: Microbial challenge, Grupo Medifarma; conditions: contact time 30 seconds
Excerpt: as §1, §2, §3

[6] = system: Pseudomonas aeruginosa ATCC 9027; test: Microbial challenge, Grupo Medifarma; conditions: contact time 30 seconds
Excerpt: as §1, §2, §3

[7] = system: Staphylococcus aureus ATCC 6538; test: Microbial challenge, Grupo Medifarma; conditions: contact time 30 seconds
Excerpt: as §1, §2, §3

[8] = system: Staphylococcus epidermidis ATCC 12228; test: Microbial challenge, Grupo Medifarma; conditions: contact time 30 seconds
Excerpt: as §1, §2, §3

Salmonella typhi CA-C001 = test: Microbial challenge, UNAM; conditions: contact time 30 seconds
Excerpt: as §1, §2, §3

[9] = system: Candida albicans ATCC 10231; test: Microbial challenge, ARj.; conditions: contact time 30 seconds
Excerpt: as §1, §2, §3

[10] = system: Klebsiella pneumoniae ATCC 10031; test: Microbial challenge, ARj.; conditions: contact time 30 seconds
Excerpt: as §1, §2, §3

Enterobacter cloacae = test: Challenge with microorganisms collected from hospitalized patients, Universidad Autónoma del Estado de Morelos; conditions: contact time 30 seconds; isolate from hospitalized patients; UAEM
Procedure: as §1
(§4) A second type of challenges were performed at the Universidad Autónoma del Estado de Morelos with microorganisms collected from hospitalized patients and thus said microorganisms had already been in contact with antimicrobial agents and could show resistance (Table 4).

Enterobacter faecalis = test: as above; conditions: contact time 30 seconds; isolate from hospitalized patients; UAEM
Procedure: as §1, §4

Escherichia coli = test: as above; conditions: contact time 30 seconds; isolate from hospitalized patients; UAEM
Procedure: as §1, §4

Salmonella enteritidis = test: as above; conditions: contact time 30 seconds; isolate from hospitalized patients; UAEM
Procedure: as §1, §4

Salmonella typhi = test: as above; conditions: contact time 30 seconds; isolate from hospitalized patients; UAEM
Procedure: as §1, §4

Serratia marcenses = test: as above; conditions: contact time 30 seconds; isolate from hospitalized patients; UAEM
Procedure: as §1, §4

Staphylococcus aureus = test: as above; conditions: contact time 30 seconds; isolate from hospitalized patients; UAEM
Procedure: as §1, §4

Propionibacterium acnes = test: Antimicrobial action of Pirfenidone and M-DDO gel
Excerpt: as §1

[11] = system: collection microorganisms; test: Microbial challenge studies at the Universidad Nacional Autónoma de México, summary
Procedure: as §2, §3

[12] = system: microorganisms isolated from hospitalized patients; test: Challenges with microorganisms isolated from hospitalized patients, summary; conditions: 30 second contact
Procedure: as §4

[1,2-diallyl-1-(5-methyl-tetrahydro-2H-pyran-2-yloxy)disulfonium]+6-[(benzyl, methyl, octylammonium) (hydroxymethylamin)(methylamin)]-tetrahydro-2H-pyran-3-oxy] chloride [M-DDO]
100%: elimination of microorganisms [1] | elimination of microorganisms [2] | elimination of microorganisms [3] | elimination of microorganisms [4] | elimination of microorganisms [5] | elimination of microorganisms [6] | elimination of microorganisms [7] | elimination of microorganisms [8] | elimination of the microbial charge [9] | elimination of the microbial charge [10] | reduction of the microbial charge (Enterobacter cloacae) | reduction of the microbial charge (Salmonella enteritidis) | reduction of the microbial charge (Serratia marcenses) | Percentage of reduction of bacteria viability (%) (Propionibacterium acnes; exposition time 15 min)
99.961%: reduction of the microbial charge (Escherichia coli)
99.972%: reduction of the microbial charge (Enterobacter faecalis)
99.170%: reduction of the microbial charge (Salmonella typhi)
99.999%: elimination of the microbial charge (Salmonella typhi CA-C001) | reduction of the microbial charge (Staphylococcus aureus) | Percentage of reduction of bacteria viability (%) (Propionibacterium acnes; exposition time 30 sec) | Percentage of reduction of bacteria viability (%) (Propionibacterium acnes; exposition time 60 sec) | elimination of the microbial charge [11]
at least 99.17%: reduction of the microbial charge [12]
